{"source": "paper PMC9066070", "about": "“RGI‐GOLVEN signaling promotes cell surface immune receptor abundance to regulate plant immunity” (EMBO Reports, 2022)", "molecules": {"B1": {"name": "GLV2 peptide without sulfated tyrosine (GLV2^-S) (peptide)", "peptide": "DMDYNSANKKRPIHN", "modifications": "without sulfated tyrosine", "notes": "mature GLV2 peptide cut from the GLV2 precursor, Arabidopsis thaliana, tyrosine not sulfated; also called GLV^-S; source: synthetic peptide (Pepmic, Suzhou, China; purity minimum 90%)"}, "B2": {"name": "GOLVEN2 (GLV2) peptide, tyrosine-sulfated (peptide)", "peptide": "DMDY(SO3H)NSANKKR[Hyp]IHN", "notes": "mature GLV2 peptide cut from the GLV2 precursor, Arabidopsis thaliana; also called synthetic GLV2; source: synthetic peptide (Pepmic, Suzhou, China; purity minimum 90%)"}}, "key": {"26S proteasome": {"system": "26S proteasome", "assay": "FLS2 accumulation in rgi5x after MG132 treatment, western blot", "assay_type": "in vivo, Arabidopsis thaliana", "conditions": "rgi5x seedlings, 50 μM MG132, 1 h", "method": "Figure 6 GLV2 perception by RGIs promotes maximal FLS2 abundance independent of transcription • Twelve‐day‐old WT or 35S::GLV2 8‐5 seedlings were treated with mock or 1 μM GLV2 for 24 h before protein extraction. Western blots were probed with α‐FLS2 or α‐BAK1 antibodies. CBB: Coomassie brilliant blue. • Quantitative real‐time PCR of FLS2 transcripts from 12‐day‐old seedlings treated with mock or 1 μM GLV2 for the indicated time, n = 3 biological replicates. UBQ was used as a house keeping gene. […] Western blot was probed with α‐FLS2 antibodies. • Protein extraction was performed from 12‐day‐old seedlings after 1 h treatment with mock or 50 μM MG132. Western blots were probed with α‐FLS2 antibodies. Data information: Similar results were obtained in three independent experiments. Source data are available online for this figure."}, "PRR-BAK1 complex": {"system": "PRR-BAK1 complex", "conditions": "ref Stegmann et al, 2017; cited from earlier work", "excerpt": "FER controls FLS2-BAK1 and EFR-BAK1 complex formation independent of protein accumulation ([…] et al, [2017]). In contrast to GLV2 treatment, the FER ligand RALF23 inhibits PRR-BAK1 complex formation. […] Whether GLV2's promotion of PRR complex formation and the regulation of PRR ..."}, "FLS2 transcription": {"system": "FLS2 transcription", "design": "method as in Flury et al, 2013; Tintor et al, 2013; Hou et al, 2014", "conditions": "ref Flury et al, 2013, Tintor et al, Hou et al, 2014; cited from earlier work"}, "[1]": {"molecular_target": "T1, ectodomain of RGI3 with C-terminal Strep II-9x His tag (RGI3^ECD-Strep II-9x His) (Arabidopsis thaliana, UniProt C0LGR3 25-703, fluorescent dye by Monolith Protein Labeling Kit RED-tris-NTA Second Generation (His-tag reactive))", "T1 construct": "It was cloned into the baculovirus transfer vector pMeIBac B1 for secreted expression; not shown: Strep II-9x His, C-terminal, kept", "T1 sequence (looked up)": "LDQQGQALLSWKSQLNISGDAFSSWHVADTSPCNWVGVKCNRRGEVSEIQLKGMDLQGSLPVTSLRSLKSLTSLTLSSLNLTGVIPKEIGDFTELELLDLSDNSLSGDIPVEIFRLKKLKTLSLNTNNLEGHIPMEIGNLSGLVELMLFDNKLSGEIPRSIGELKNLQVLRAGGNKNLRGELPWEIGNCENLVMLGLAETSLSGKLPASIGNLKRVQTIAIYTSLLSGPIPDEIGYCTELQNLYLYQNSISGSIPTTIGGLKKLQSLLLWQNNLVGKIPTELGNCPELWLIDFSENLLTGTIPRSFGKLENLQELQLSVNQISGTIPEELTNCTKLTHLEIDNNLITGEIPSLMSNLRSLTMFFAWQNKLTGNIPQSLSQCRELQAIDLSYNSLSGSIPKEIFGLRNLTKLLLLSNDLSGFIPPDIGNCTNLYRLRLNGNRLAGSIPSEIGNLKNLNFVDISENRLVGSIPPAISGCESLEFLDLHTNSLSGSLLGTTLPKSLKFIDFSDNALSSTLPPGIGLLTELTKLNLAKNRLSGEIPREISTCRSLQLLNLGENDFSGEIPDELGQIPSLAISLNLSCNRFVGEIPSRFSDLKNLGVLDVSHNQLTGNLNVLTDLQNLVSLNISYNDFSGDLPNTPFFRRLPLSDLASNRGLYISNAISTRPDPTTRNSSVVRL", "conditions": "both partners purified"}}, "note": "“Also recorded” adds a separate entry of the source. Non-standard residues stand in square brackets, D forms with d. Residues, ends and D or L forms follow the SMILES beside them. No end group written: not given here. *: point of attachment. SO3H = sulfated tyrosine (TyrSO3H2), O=S(=O)(O)*; Hyp = O=C(O)[C@@H]1C[C@@H](O)CN1; Cbz = O=C(OCc1ccccc1)*"}
{"molecule": "CC(C)C[C@@H](C=O)NC(=O)[C@H](CC(C)C)NC(=O)[C@H](CC(C)C)NC(=O)OCc1ccccc1", "note": "[MG132] (Cbz-Leu-Leu-Leu-aldehyde)", "values": [{"measurement": "FLS2 accumulation defect of rgi5x", "setting": "26S proteasome", "result": "partial restoration; also recorded: partially rescued"}]}
{"molecule": "RALF23: FER ligand; RAPID ALKALINIZATION FACTOR peptide (ATRRYISYGALRRNTIPCSRRGASYYNCRRGAQANPYSRGCSAITRCRRS; Protein RALF-like 23; UniProt Q9LUS7 89-138, looked up)", "values": [{"measurement": "PRR-BAK1 complex formation", "setting": "PRR-BAK1 complex", "result": "inhibits PRR‐BAK1 complex formation"}]}
{"molecule": "PIP1: PATHOGEN-ASSOCIATED MOLECULAR PATTERN (PAMP)-INDUCED PEPTIDE perceived by RLK7 (GRVLTEKSGDGSATMTVEKMKSTVDSWFQRLASGPSPRGRGH; PAMP-induced secreted peptide 1; UniProt Q1PE40 31-72, looked up)", "values": [{"measurement": "FLS2 transcription", "setting": "FLS2 transcription", "result": "upregulation of FLS2 transcription"}]}
{"molecule": "B1", "values": [{"measurement": "Kd", "setting": "[1]", "result": 129, "unit": "nM"}]}
{"molecule": "B2", "values": [{"measurement": "Kd", "setting": "[1]", "result": 11.8, "unit": "nM"}]}
